Source: article PMC4804635 (European journal of pharmacology, 2016)

How the values were obtained:
[1] = target: Recombinant Human ACE2 (rhACE2) (Homo sapiens, UniProt Q9BYF1); assay: ACE2 activity assay with recombinant human ACE2; format: biochemical
[2] = target: Recombinant Human ACE (rhACE) (Homo sapiens, UniProt P12821); assay: ACE activity assay with recombinant human ACE; format: biochemical
ACE2 in murine heart = ACE2 in murine heart (Mus musculus, UniProt Q8R0I0); assay: ACE2 activity assay in murine heart homogenate; format: biochemical
ACE in murine heart = target: T1, ACE in murine heart (Mus musculus, UniProt P09470); assay: ACE activity assay in murine heart homogenate; format: biochemical
T1 sequence (P09470 35-1312): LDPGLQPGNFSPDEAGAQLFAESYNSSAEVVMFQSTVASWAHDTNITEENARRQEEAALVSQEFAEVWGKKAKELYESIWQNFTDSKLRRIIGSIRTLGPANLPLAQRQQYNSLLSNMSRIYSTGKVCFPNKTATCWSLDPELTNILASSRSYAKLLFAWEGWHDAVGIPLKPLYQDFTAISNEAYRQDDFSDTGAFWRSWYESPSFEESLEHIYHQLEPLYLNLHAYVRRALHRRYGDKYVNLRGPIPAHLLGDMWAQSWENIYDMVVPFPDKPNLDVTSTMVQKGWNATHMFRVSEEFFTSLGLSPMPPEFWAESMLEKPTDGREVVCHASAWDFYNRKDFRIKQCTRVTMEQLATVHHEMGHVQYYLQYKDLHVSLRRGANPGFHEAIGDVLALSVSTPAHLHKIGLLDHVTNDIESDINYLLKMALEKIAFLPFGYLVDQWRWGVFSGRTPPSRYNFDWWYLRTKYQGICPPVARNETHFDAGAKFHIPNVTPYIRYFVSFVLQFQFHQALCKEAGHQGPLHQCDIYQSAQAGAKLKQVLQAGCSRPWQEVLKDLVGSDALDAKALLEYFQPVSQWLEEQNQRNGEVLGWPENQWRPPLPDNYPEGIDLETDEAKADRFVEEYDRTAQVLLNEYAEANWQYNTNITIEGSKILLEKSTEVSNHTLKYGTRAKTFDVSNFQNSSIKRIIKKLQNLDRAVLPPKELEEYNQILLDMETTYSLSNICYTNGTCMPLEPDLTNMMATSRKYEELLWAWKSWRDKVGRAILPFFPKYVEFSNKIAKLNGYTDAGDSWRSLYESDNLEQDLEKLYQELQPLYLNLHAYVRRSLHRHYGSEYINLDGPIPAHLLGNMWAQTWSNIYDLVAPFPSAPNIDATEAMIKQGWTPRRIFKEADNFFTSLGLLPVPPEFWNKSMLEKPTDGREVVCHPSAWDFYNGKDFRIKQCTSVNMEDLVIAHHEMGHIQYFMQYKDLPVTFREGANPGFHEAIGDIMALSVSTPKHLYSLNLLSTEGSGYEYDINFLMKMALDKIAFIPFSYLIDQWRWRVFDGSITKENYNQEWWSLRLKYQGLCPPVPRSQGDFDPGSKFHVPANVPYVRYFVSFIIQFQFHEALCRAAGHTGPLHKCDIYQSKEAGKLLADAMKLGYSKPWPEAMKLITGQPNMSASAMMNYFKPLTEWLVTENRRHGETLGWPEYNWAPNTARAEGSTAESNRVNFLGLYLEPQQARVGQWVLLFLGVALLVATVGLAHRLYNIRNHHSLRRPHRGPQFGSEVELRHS

ACE in human CD34+ cells = ACE in human CD34+ cells (Homo sapiens, UniProt P12821); assay: ACE activity assay in human CD34+ cell lysates
[3] = target: ACE2 in human CD34+ cells (Homo sapiens, UniProt Q9BYF1); assay: ACE2 activity assay in human CD34+ cell lysates; conditions: for Imax at ACE2 in human CD34+ cells: cell lysate, 4 h, n=6
Human MNC ACE = Human MNC ACE (Homo sapiens, UniProt P12821); assay: ACE activity assay in human mononuclear cell lysates; conditions: cell lysate 10 μg protein, 4 h
Human MNC ACE2 = Human MNC ACE2 (Homo sapiens, UniProt Q9BYF1); assay: ACE2 activity assay in human mononuclear cell lysates; conditions: for Imax at ACE2 in human MNCs: cell lysate 10 μg protein, 4 h
Murine MNC ACE = target: T2, Murine MNC ACE (Mus musculus, UniProt P09470); assay: ACE activity assay in murine mononuclear cell lysates
T2 sequence (P09470 35-1312): T1 sequence (P09470 35-1312)

Murine MNC ACE2 = Murine MNC ACE2 (Mus musculus, UniProt Q8R0I0); assay: ACE2 activity assay in murine mononuclear cell lysates
[4] = recombinant enzyme, 50 μM substrate, pH 6.5, 1 h

Chain of ACE2 in human CD34+ cells (Q9BYF1 18-805): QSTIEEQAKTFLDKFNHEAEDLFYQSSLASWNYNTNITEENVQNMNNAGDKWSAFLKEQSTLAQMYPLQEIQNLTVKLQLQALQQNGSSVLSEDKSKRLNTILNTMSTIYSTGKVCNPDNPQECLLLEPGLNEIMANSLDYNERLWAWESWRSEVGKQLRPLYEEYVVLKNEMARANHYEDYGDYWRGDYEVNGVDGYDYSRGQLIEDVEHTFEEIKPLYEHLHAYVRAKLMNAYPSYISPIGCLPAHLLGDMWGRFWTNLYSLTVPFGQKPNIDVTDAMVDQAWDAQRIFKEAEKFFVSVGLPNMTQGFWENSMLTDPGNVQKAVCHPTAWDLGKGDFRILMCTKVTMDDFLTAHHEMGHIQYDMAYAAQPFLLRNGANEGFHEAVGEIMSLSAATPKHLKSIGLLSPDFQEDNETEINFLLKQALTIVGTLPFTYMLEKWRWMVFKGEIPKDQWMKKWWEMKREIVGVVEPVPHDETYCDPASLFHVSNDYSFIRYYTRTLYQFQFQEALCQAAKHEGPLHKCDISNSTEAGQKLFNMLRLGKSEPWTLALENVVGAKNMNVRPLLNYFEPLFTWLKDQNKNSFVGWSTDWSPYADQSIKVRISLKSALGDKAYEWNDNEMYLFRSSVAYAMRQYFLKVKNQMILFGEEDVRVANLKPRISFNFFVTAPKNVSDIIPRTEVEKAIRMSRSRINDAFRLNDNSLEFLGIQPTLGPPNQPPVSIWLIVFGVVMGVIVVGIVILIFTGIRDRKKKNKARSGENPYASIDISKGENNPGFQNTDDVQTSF
Chain of Human MNC ACE2 (Q9BYF1 18-805): as above
Chain of Recombinant Human ACE2 (rhACE2) (Q9BYF1 18-805): as above
Chain of ACE in human CD34+ cells (P12821 30-1306): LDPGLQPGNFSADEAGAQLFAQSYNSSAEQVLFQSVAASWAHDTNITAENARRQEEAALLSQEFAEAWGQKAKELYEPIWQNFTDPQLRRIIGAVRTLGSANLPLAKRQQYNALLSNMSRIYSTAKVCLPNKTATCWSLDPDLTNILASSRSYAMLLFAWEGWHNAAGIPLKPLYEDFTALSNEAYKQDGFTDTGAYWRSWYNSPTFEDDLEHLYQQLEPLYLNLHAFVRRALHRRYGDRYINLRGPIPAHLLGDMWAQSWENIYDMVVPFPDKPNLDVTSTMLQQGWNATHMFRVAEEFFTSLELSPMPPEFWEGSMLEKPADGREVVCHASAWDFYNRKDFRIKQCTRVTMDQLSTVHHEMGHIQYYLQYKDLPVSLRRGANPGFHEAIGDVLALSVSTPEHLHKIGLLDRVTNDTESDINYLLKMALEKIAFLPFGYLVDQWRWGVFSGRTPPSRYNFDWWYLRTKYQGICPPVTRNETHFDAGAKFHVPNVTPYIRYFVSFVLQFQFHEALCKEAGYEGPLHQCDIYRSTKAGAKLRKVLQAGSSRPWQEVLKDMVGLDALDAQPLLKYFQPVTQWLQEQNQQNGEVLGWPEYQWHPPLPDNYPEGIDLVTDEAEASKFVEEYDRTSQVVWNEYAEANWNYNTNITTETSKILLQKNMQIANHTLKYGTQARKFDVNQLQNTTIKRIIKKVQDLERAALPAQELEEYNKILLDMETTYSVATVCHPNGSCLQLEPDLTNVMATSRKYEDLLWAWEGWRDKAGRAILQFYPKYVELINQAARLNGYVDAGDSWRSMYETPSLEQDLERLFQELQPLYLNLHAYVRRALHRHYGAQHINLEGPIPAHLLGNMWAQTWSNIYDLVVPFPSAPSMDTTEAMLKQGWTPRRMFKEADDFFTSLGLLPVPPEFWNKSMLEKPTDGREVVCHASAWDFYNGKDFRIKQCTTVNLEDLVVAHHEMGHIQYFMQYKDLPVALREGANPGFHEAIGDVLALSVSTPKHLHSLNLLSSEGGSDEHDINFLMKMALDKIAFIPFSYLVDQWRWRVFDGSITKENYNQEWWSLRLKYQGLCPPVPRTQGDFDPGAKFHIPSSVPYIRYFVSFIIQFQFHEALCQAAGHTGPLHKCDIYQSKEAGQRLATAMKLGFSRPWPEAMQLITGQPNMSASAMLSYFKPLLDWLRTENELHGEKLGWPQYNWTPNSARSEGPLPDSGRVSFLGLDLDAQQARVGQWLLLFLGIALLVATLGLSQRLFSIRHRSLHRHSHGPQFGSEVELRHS
Chain of Recombinant Human ACE (rhACE) (P12821 30-1306): as above
Chain of Murine MNC ACE2 (Q8R0I0 18-805): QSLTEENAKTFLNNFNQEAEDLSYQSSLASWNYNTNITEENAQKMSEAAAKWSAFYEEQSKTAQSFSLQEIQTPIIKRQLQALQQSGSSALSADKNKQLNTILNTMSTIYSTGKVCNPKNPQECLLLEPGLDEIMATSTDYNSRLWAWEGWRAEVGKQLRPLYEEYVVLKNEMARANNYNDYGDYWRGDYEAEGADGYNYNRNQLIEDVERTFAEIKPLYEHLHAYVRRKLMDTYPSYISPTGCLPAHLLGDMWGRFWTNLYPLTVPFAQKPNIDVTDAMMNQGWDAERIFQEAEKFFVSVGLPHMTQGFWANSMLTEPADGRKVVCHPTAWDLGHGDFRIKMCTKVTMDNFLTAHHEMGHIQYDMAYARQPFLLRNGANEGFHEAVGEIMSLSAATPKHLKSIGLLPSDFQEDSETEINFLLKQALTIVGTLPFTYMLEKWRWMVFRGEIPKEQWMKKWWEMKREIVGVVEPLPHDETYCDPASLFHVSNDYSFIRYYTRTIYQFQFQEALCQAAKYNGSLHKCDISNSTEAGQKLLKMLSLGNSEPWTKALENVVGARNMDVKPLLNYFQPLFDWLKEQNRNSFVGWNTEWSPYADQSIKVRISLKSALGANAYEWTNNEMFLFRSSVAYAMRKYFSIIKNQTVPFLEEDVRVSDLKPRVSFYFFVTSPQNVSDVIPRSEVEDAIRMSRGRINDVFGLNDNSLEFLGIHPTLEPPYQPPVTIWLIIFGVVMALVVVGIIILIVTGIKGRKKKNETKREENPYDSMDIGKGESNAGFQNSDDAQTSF
Chain of Human MNC ACE (P12821 30-1306): as the sequence (P12821 30-1306) above

`CC(C)C[C@H](N[C@@H](Cc1cncn1Cc1cc(Cl)cc(Cl)c1)C(=O)O)C(=O)O` [isomer B, (2S)-2-[[(2S)-3-[3-[(3,5-dichlorophenyl)methyl]imidazol-4-yl]-1-hydroxy-1-oxopropan-2-yl]amino]-4-methylpentanoic acid] was tested, and the Ki [1] was 40 ± 5 nM, the IC50 ([1]; IC50, Recombinant Human ACE2) was 10 ± 6 nM and the “Maximum inhibition (Imax) of rhACE2” value [1, 4] was 80±3%. For the same compound, the inhibition at 10 µM ([2]; read-out: inhibition of rhACE activity) was 43%, the “Imax at rhACE” value [2, 4] was 46±1% and the IC50 (ACE2 in murine heart) was 251 nM. For the same compound, the IC50 (ACE in murine heart) was 63100 nM, the IC50 (ACE in human CD34+ cells) was 12600 nM and the “Imax at ACE in human CD34+ cells” value (ACE in human CD34+ cells; cell lysate, 4 h, n=6) was 19±2%. The IC50 [3] was 316 nM, the “Imax at ACE2 in human CD34+ cells” value [3] was 38±4% and the “Imax at ACE2 in human CD34+ cells” value ([3]; listed as MLN-4760-B) was 38%. The “Imax at ACE in human MNCs” value (Human MNC ACE) was 34±1%, the Ki (Human MNC ACE2) was 200 ± 10 nM and the IC50 (Human MNC ACE2; IC50, Human ACE2 (human MNCs)) was 500 ± 30 nM. For the same compound, the “Imax at ACE2 in human MNCs” value (Human MNC ACE2) was 63±2%, the “Imax at ACE2 in human MNCs” value (Human MNC ACE2; listed as MLN-4760-B) was 63% and the IC50 (Murine MNC ACE) was 20000 nM. It also gave a Ki (Murine MNC ACE2) of 2100 ± 200 nM and an IC50 (Murine MNC ACE2; pIC50 at ACE2 in murine MNCs, cell lysate, 4 h) of 79.4 nM.
